Values quoted from earlier work as cited in patent publication EP3335699A1, “SELEXIPAG FORMULATION IN LIQUISOLID SYSTEM” (H e x a l Aktiengesellschaft, priority 2016, dated 2018).

Conditions: low solubility and low permeability; b10 refers to crystalline forms

CC(C)N(CCCCOCC(=O)NS(C)(=O)=O)c1cnc(-c2ccccc2)c(-c2ccccc2)n1 [selexipag]
BCS (Biopharmaceutics Classification System) class: class IV
